Measurements from ChEMBL document CHEMBL4325929, “Discovery of Tetrahydropyridopyrimidines as Irreversible Covalent Inhibitors of KRAS-G12C with In Vivo Activity” (ACS Med Chem Lett, 2018).
pIC50: −log10 of the molar value. Blank lines part the entries; values can stand above or below the molecule they belong to. Calls of active or inactive are those of the source. No cut-off for these calls is given here.

How the values were obtained:
[1] = system: GTPase KRas (Homo sapiens), P01116 [G12C]; test: Binding affinity to KRAS G12C mutant (unknown origin) assessed as covalent modification at 3 uM after 15 mins by LC-MS analysis relative to control
Chain of GTPase KRas (Homo sapiens), P01116 [G12C] (P01116 whole entry G12C): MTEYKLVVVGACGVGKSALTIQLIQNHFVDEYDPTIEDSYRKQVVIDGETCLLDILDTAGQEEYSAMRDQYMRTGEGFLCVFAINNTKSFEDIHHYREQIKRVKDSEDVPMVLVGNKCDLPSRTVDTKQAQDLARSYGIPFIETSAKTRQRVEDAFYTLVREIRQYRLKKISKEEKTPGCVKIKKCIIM

[2] = system: MDR1; test: Apparent permeability across apical to basolateral side in pig LLC-PK1 cells expressing MDR1 at 1 uM; format: ADME, cell-based, Sus scrofa
[3] = system: MDR1; test: Apparent permeability across basolateral to apical side in pig LLC-PK1 cells expressing MDR1 at 1 uM; format: ADME, cell-based, Sus scrofa
[4] = Protein binding in CD-1 mouse plasma at 1 uM by equilibrium dialysis method; format: ADME, cell-free; conditions: read-out: PPB (converted)
[5] = Clearance in CD-1 mouse at 3 mg/kg, iv; format: ADME, organism-based; conditions: in vivo
[6] = Half life in CD-1 mouse at 3 mg/kg, iv; format: ADME, organism-based; conditions: in vivo
[7] = Volume of distribution at steady state in CD-1 mouse at 3 mg/kg, iv; format: ADME, organism-based; conditions: in vivo, read-out: Vdss
[8] = Cmax in CD-1 mouse at 100 mg/kg, po; format: ADME, organism-based; set-up: dose 100 mg/kg, route oral; conditions: in vivo
[9] = Tmax in CD-1 mouse at 100 mg/kg, po; format: ADME, organism-based; conditions: in vivo
[10] = AUC (infinity) in CD-1 mouse at 100 mg/kg, po; format: ADME, organism-based; set-up: dose 100 mg/kg, time infinity, route oral; conditions: in vivo
[11] = Oral bioavailability in CD-1 mouse at 100 mg/kg; format: ADME, organism-based; conditions: in vivo
[12] = Plasma concentration in CD-1 mouse at 15 mg/kg, ip measured after 0.5 hrs; format: ADME, organism-based
[13] = Plasma concentration in CD-1 mouse at 15 mg/kg, ip measured after 1 hr; format: ADME, organism-based
[14] = Plasma concentration in CD-1 mouse at 15 mg/kg, ip measured after 3 hrs; format: ADME, organism-based; conditions: in vivo, BLD = below limit of detection
[15] = Plasma concentration in CD-1 mouse at 50 mg/kg, ip measured after 0.5 hrs; format: ADME, organism-based
[16] = Plasma concentration in CD-1 mouse at 50 mg/kg, ip measured after 1 hr; format: ADME, organism-based
[17] = Plasma concentration in CD-1 mouse at 50 mg/kg, ip measured after 3 hrs; format: ADME, organism-based
[18] = Plasma concentration in CD-1 mouse at 100 mg/kg, ip measured after 0.5 hrs; format: ADME, organism-based
[19] = Plasma concentration in CD-1 mouse at 100 mg/kg, ip measured after 1 hr; format: ADME, organism-based
[20] = Plasma concentration in CD-1 mouse at 100 mg/kg, ip measured after 3 hrs; format: ADME, organism-based
[21] = Plasma concentration in CD-1 mouse at 100 mg/kg, ip measured after 6 hrs; format: ADME, organism-based
[22] = system: MIA PaCa-2; test: Antitumor activity against human MIAPaCa2 cells xenografted in nude-Fox1nu mouse assessed as tumor regression at 30 to 100 mg/kg, ip administered once daily for 5 days; format: functional, organism-based
[23] = system: MIA PaCa-2; test: Antitumor activity against human MIAPaCa2 cells xenografted in nude-Fox1nu mouse assessed as reduction in tumor volume at 30 to 100 mg/kg, ip administered once daily for 17 days measured three times a week during compound dosing; format: functional, organism-based
[24] = Toxicity in nude-Fox1nu mouse xenografted with human MIAPaCa2 cells assessed as body weight loss at 30 to 100 mg/kg, ip administered once daily for 17 days measured 2 times a week during compound dosing; format: organism-based; conditions: in vivo, 408 h
[25] = Toxicity in nude-Fox1nu mouse xenografted with human MIAPaCa2 cells assessed as adverse effect at 30 to 100 mg/kg, ip administered once daily for 17 days measured during compound dosing; format: organism-based; conditions: in vivo, 408 h
[26] = system: Mus musculus; test: Ex vivo inhibition of KRAS G12C mutant in human MIAPaCa2 cells xenografted in nude-Fox1nu mouse assessed as target engagement in tumor at 30 to 100 mg/kg, ip administered once daily for 1 day measured 3 to 24 hrs post dose relative to control; format: functional; set-up: scale not given: the % may be the effect or the level left
[27] = system: Mus musculus; test: Ex vivo inhibition of KRAS G12C mutant in human MIAPaCa2 cells xenografted in nude-Fox1nu mouse assessed as target engagement in tumor at 30 to 100 mg/kg, ip administered once daily for 5 days measured 3 to 24 hrs post dose relative to control; format: functional; set-up: scale not given: the % may be the effect or the level left
[28] = system: GTPase KRas (Homo sapiens), P01116 [G12C]; test: Binding affinity to KRAS G12C mutant (unknown origin) assessed as covalent modification at 5 uM after 3 hrs by LC-MS analysis relative to control
[29] = biological target: GTPase KRas (Homo sapiens, UniProt P01116, G12C); test: Inhibition of KRAS G12C mutant in human NCI-H358 cells assessed as reduction in ERK phosphorylation measured after 3 hrs by Western blot analysis; format: cell-based
Chain of GTPase KRas (P01116 whole entry G12C): as above

Activity [1]: 84% | Papp A→B at 1 µM [2]: 1.4 ×10⁻⁶ cm/s | Papp B→A at 1 µM [3]: 37 ×10⁻⁶ cm/s | fraction unbound at 1 µM [4]: 0.05 | clearance [5]: 46 mL/min/kg | half-life [6]: 57.6 min | Vd [7]: 0.53 L/kg | Cmax [8]: 590 ng/mL | Tmax [9]: 60 min | AUC(0-inf) [10]: 880 ng·h/mL | bioavailability [11]: 2.4% | concentration at 0.5 h [12]: 1500 ng/mL | concentration at 1 h [13]: 970 ng/mL | Cp [14]: Bld | concentration at 0.5 h [15]: 8300 ng/mL | concentration at 1 h [16]: 2600 ng/mL | concentration at 3 h [17]: 250 ng/mL | concentration at 0.5 h [18]: 26000 ng/mL | concentration at 1 h [19]: 17000 ng/mL | concentration at 3 h [20]: 1400 ng/mL | concentration at 6 h [21]: 1300 ng/mL
SMILES: C=CC(=O)N1CCN(c2nc(OC[C@@H]3CCCN3C)nc3c2CCN(c2cc(O)cc4ccccc24)C3)CC1
Activity [22]: Active | Activity [23]: Active | Activity [24]: Non-Toxic | Activity [25]: Non-Toxic | Activity [26]: >65% | Activity [27]: >65%

SMILES: C=CC(=O)N1CCN(c2ncnc3c2CCN(c2cccc4ccc(O)cc24)C3)CC1
Activity [28]: 0% | pIC50 [29]: < 4.80

SMILES: C=CC(=O)N1CCN(c2ncnc3c2CCN(c2c(O)cccc2F)C3)CC1
Activity [28]: 2% | pIC50 [29]: < 4.80

SMILES: C=CC(=O)N1CCN(c2ncnc3c2CCN(c2cc(O)cc4ccccc24)C3)CC1
Activity [28]: 99% | pIC50 [29]: 5.12 | Activity [1]: 8%

SMILES: C=CC(=O)N1CCN(c2ncnc3c2CCN(c2c(C)ccc4[nH]ncc24)C3)CC1
Activity [28]: 22% | pIC50 [29]: < 4.80

SMILES: C=CC(=O)N1CCN(c2nc(OCCN(C)C)nc3c2CCN(c2cc(O)cc4ccccc24)C3)CC1
pIC50 [29]: 5.72 | Activity [1]: 52%

SMILES: C=CC(=O)N1CCN(c2ncnc3c2CCN(c2cc(O)ccc2F)C3)CC1
Activity [28]: 2% | pIC50 [29]: < 4.80

SMILES: C=CC(=O)N1CCN(c2ncnc3c2CCN(c2cccc4ccccc24)C3)CC1
Activity [28]: 13% | pIC50 [29]: < 4.80

SMILES: C=CC(=O)N1CCN(c2nc(OCCCN(C)C)nc3c2CCN(c2cc(O)cc4ccccc24)C3)CC1
pIC50 [29]: 5.82 | Activity [1]: 22%

SMILES: C=CC(=O)N1CCN(c2nc(O[C@@H](C)CN(C)C)nc3c2CCN(c2cc(O)cc4ccccc24)C3)CC1
pIC50 [29]: 6.27 | Activity [1]: 21%
